Results reported in patent US9221838B2, “Inhibitors of AKT activity” (ALMAC DISCOVERY LIMITED, priority 2009, dated 2015).

Legend:
Type in all cases: biochemical
[1] = target: T1, AKT1 (Homo sapiens, UniProt P31749); assay: AKT Kinase Assay (IMAP fluorescent polarisation) vs AKT1
T1 construct: purchased SignalChem
How it was run: (§1)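 Phosphorylation of FAM-Crosstide detected by IMAP binding and fluorescence polarisation (485/528 nm), with IC50 fitted from % inhibition versus vehicle. Compound was incubated 45 min with enzyme, then reacted 1 h at room temperature with ATP and peptide in Tris/MgCl2/DTT buffer. Dose response had fourteen half-log points.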

[2] = target: T2, AKT2 (Homo sapiens, UniProt P31751); assay: AKT Kinase Assay (IMAP fluorescent polarisation) vs AKT2
T2 construct: purchased SignalChem
T2 sequence (P31751 whole entry): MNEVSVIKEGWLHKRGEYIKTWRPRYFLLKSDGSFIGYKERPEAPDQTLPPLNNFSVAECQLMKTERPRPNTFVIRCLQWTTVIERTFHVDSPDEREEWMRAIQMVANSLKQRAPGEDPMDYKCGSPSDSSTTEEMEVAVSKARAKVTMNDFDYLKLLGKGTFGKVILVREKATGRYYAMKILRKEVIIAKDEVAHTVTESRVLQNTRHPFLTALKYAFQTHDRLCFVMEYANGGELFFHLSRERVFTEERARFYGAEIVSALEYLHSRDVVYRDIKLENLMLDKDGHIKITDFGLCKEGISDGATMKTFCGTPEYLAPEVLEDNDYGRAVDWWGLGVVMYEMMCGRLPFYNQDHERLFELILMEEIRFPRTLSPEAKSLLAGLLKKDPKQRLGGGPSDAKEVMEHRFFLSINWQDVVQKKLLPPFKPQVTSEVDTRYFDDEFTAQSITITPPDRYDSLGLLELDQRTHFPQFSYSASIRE
How it was run: as §1

[3] = target: T3, AKT3 (Homo sapiens, UniProt Q9Y243); assay: AKT Kinase Assay (IMAP fluorescent polarisation) vs AKT3
T3 construct: purchased SignalChem
T3 sequence (Q9Y243 whole entry): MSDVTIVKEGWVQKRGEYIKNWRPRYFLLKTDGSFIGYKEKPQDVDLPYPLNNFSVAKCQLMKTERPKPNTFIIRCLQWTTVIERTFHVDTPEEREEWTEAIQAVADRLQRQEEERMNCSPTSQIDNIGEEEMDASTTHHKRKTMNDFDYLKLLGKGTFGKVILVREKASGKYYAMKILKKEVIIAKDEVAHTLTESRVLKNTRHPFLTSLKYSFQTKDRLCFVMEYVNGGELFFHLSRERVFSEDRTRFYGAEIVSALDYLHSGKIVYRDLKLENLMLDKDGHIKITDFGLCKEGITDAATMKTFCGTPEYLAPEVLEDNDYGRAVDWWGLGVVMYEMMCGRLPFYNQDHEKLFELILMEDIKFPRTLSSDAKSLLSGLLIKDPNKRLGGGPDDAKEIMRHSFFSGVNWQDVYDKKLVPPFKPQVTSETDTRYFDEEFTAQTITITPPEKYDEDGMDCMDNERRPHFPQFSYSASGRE
How it was run: as §1

T1 sequence (P31749 whole entry): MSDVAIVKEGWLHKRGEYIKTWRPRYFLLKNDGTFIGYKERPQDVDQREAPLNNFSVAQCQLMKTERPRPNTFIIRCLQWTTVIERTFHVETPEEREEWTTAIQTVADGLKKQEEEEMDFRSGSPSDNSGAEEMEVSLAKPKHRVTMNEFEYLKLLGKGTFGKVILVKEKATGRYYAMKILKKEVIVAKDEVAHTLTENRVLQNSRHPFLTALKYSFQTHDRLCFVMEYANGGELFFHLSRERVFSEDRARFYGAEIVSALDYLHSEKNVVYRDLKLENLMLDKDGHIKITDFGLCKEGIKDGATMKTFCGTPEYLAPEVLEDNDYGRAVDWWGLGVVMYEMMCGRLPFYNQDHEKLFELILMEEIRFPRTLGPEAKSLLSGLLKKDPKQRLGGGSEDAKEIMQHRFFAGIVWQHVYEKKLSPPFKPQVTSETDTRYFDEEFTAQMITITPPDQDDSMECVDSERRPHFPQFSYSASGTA

Compound | IC50 [1] [µM] | IC50 [2] [µM] | IC50 [3] [µM]
CC(C#N)N1C(=O)COc2nc(-c3ccc(C4(N)CCC4)cc3)c(-c3ccccc3)cc21 (stereo not drawn) [Example 54, 2-(6-(4-(1-aminocyclobutyl)phenyl)-2-oxo-7-phenyl-2,3-dihydro-1H-pyrido[2,3-b][1,4]oxazin-1-yl)propanenitrile] | 0.1 to 1 | 0.1 to 1 | 1 to 10
NC1(c2ccc(-c3nc4c(cc3-c3ccccc3)N(CC3CC3)C(=O)CO4)cc2)CCC1 [Example 55, 6-(4-(1-aminocyclobutyl)phenyl)-1-(cyclopropylmethyl)-7-phenyl-1H-pyrido[2,3-b][1,4]oxazin-2(3H)-one] | 0.1 to 1 | ≤ 0.1 | 0.1 to 1
NC1(c2ccc(-c3nc4c(cc3-c3ccccc3)N(Cc3ccccn3)C(=O)CO4)cc2)CCC1 [Example 56, 6-(4-(1-aminocyclobutyl)phenyl)-7-phenyl-1-(pyridin-2-ylmethyl)-1H-pyrido[2,3-b][1,4]oxazin-2(3H)-one] | 0.1 to 1 | 0.1 to 1 | 0.1 to 1
CC(C)N1C(=O)COc2nc(-c3ccc(C4(N)CCC4)cc3)c(-c3ccccc3)cc21 [Example 57, 6-(4-(1-aminocyclobutyl)phenyl)-1-isopropyl-7-phenyl-1H-pyrido[2,3-b][1,4]oxazin-2(3H)-one] | 1 to 10 | 0.1 to 1 | 1 to 10
NC1(c2ccc(-c3nc4c(cc3-c3ccccc3)N(Cc3cscn3)C(=O)CO4)cc2)CCC1 [Example 59, 6-(4-(1-aminocyclobutyl)phenyl)-7-phenyl-1-(thiazol-4-ylmethyl)-1H-pyrido[2,3-b][1,4]oxazin-2(3H)-one] | 1 to 10 | 0.1 to 1 | 1 to 10
NC1(c2ccc(-c3nc4c(cc3-c3ccccc3)N(CC(F)(F)F)C(=O)CO4)cc2)CCC1 [Example 60, 6-(4-(1-aminocyclobutyl)phenyl)-7-phenyl-1-(2,2,2-trifluoroethyl)-1H-pyrido[2,3-b][1,4]oxazin-2(3H)-one] | 0.1 to 1 | ≤ 0.1 | 1 to 10
NC1(c2ccc(-c3nc4c(cc3-c3ccccc3)N(C3CCC3)C(=O)CO4)cc2)CCC1 [Example 61, 6-(4-(1-aminocyclobutyl)phenyl)-1-cyclobutyl-7-phenyl-1H-pyrido[2,3-b][1,4]oxazin-2(3H)-one] | 1 to 10 | 0.1 to 1 | 1 to 10
Cc1nnc2n1-c1cc(-c3ccccc3)c(-c3ccc(C4(N)CCC4)cc3)nc1OC2 [Example 63, 1-(4-(1-methyl-8-phenyl-4H-pyrido[2,3-b][1,2,4]triazolo[4,3-d][1,4]oxazin-7-yl)phenyl)cyclobutanamine] | 0.1 to 1 | 1 to 10 | > 10
N#CCCCN1C(=O)COc2nc(-c3ccc(C4(N)CCC4)cc3)c(-c3ccccc3)cc21 [Example 64, 4-(6-(4-(1-aminocyclobutyl)phenyl)-2-oxo-7-phenyl-2,3-dihydro-1H-pyrido[2,3-b][1,4]oxazin-1-yl)butanenitrile] | 0.1 to 1 | 0.1 to 1 | 1 to 10
N#CCCCCN1C(=O)COc2nc(-c3ccc(C4(N)CCC4)cc3)c(-c3ccccc3)cc21 [Example 66, 5-(6-(4-(1-aminocyclobutyl)phenyl)-2-oxo-7-phenyl-2,3-dihydro-1H-pyrido[2,3-b][1,4]oxazin-1-yl)pentanenitrile] | 0.1 to 1 | 0.1 to 1 | 1 to 10
C=CCN1C(=O)COc2nc(-c3ccc(C4(N)CCC4)cc3)c(-c3ccccc3)cc21 [Example 67, 1-allyl-6-(4-(1-aminocyclobutyl)phenyl)-7-phenyl-1H-pyrido[2,3-b][1,4]oxazin-2(3H)-one] | 0.1 to 1 | ≤ 0.1 | 1 to 10
CCCc1nnc2n1-c1cc(-c3ccccc3)c(-c3ccc(C4(N)CCC4)cc3)nc1OC2 [Example 69, 1-(4-(8-phenyl-1-propyl-4H-pyrido[2,3-b][1,2,4]triazolo[4,3-d][1,4]oxazin-7-yl)phenyl)cyclobutanamine] | ≤ 0.1 | 0.1 to 1 | 1 to 10
CS(=O)(=O)N1CCOc2nc(-c3ccc(C4(N)CCC4)cc3)c(-c3ccccc3)cc21 [Example 70, 1-(4-(1-(methylsulfonyl)-7-phenyl-2,3-dihydro-1H-pyrido[2,3-b][1,4]oxazin-6-yl)phenyl)cyclobutanamine] | 0.1 to 1 | 0.1 to 1 | > 10
NC1(c2ccc(-c3nc4c(cc3-c3ccccc3)NC(=O)C(CCO)O4)cc2)CCC1 (stereo not drawn) [Example 71, 6-(4-(1-aminocyclobutyl)phenyl)-3-(2-hydroxyethyl)-7-phenyl-1H-pyrido[2,3-b][1,4]oxazin-2(3H)-one] | 0.1 to 1 | 1 to 10 | 1 to 10
CN1CC(=O)Nc2cc(-c3ccccc3)c(-c3ccc(C4(N)CCC4)cc3)nc21 [Example 72, 6-(4-(1-aminocyclobutyl)phenyl)-4-methyl-7-phenyl-3,4-dihydropyrido[2,3-b]pyrazin-2(1H)-one] | 0.1 to 1 | 1 to 10 | > 10
NC1(c2ccc(-c3nc4c(cc3-c3ccccc3)N(c3cccnc3)S(=O)(=O)CO4)cc2)CCC1 [Example 74, 6-(4-(1-aminocyclobutyl)phenyl)-7-phenyl-1-(pyridin-3-yl)-1H-pyrido[3,2-e][1,3,4]oxathiazine 2,2-dioxide] | 1 to 10 | 1 to 10 | > 10
NC1(c2ccc(-c3nc4c(cc3-c3ccccc3)N(c3cccnc3)C(=O)CO4)cc2)CCC1 [Example 75, 6-(4-(1-aminocyclobutyl)phenyl)-7-phenyl-1-(pyridin-3-yl)-1H-pyrido[2,3-b][1,4]oxazin-2(3H)-one] | 1 to 10 | 1 to 10 | > 10
N#CCN1c2cc(-c3ccccc3)c(-c3ccc(C4(N)CCC4)cc3)nc2OCS1(=O)=O [Example 76, 2-(6-(4-(1-aminocyclobutyl)phenyl)-2,2-dioxido-7-phenyl-1H-pyrido[3,2-e][1,3,4]oxathiazin-1-yl)acetonitrile] | 0.1 to 1 | ≤ 0.1 | > 10
CN1C(=O)C(CCO)Oc2nc(-c3ccc(C4(N)CCC4)cc3)c(-c3ccccc3)cc21 (stereo not drawn) [Example 77, 6-(4-(1-aminocyclobutyl)phenyl)-3-(2-hydroxyethyl)-1-methyl-7-phenyl-1H-pyrido[2,3-b][1,4]oxazin-2(3H)-one] | 0.1 to 1 | 1 to 10 | > 10
CC1Oc2nc(-c3ccc(C4(N)CCC4)cc3)c(-c3ccccc3)cc2N(CC#N)C1=O (stereo not drawn) [Example 81, 2-(6-(4-(1-aminocyclobutyl)phenyl)-3-methyl-2-oxo-7-phenyl-2,3-dihydro-1H-pyrido[2,3-b][1,4]oxazin-1-yl)acetonitrile] | ≤ 0.1 | 0.1 to 1 | 1 to 10

More lines, now with the values ahead:

IC50 [1] [µM] | IC50 [2] [µM] | IC50 [3] [µM] | Compound
0.1 to 1 | ≤ 0.1 | 1 to 10 | CCN1C(=O)COc2nc(-c3ccc(C4(N)CCC4)cc3)c(-c3ccccc3)cc21 [Example 52, 6-(4-(1-aminocyclobutyl)phenyl)-1-ethyl-7-phenyl-1H-pyrido[2,3-b][1,4]oxazin-2(3H)-one]
1 to 10 | 1 to 10 | 1 to 10 | NC1(c2ccc(-c3nc4c(cc3-c3ccccc3)N(Cc3cnc[nH]3)C(=O)CO4)cc2)CCC1 [Example 53, 1-((1H-imidazol-5-yl)methyl)-6-(4-(1-aminocyclobutyl)phenyl)-7-phenyl-1H-pyrido[2,3-b][1,4]oxazin-2(3H)-one]
1 to 10 | 0.1 to 1 | 1 to 10 | NC1(c2ccc(-c3nc4c(cc3-c3ccccc3)N(C3CCCC3)C(=O)CO4)cc2)CCC1 [Example 58, 6-(4-(1-aminocyclobutyl)phenyl)-1-cyclopentyl-7-phenyl-1H-pyrido[2,3-b][1,4]oxazin-2(3H)-one]
1 to 10 | 0.1 to 1 | 1 to 10 | N#CCCN1C(=O)COc2nc(-c3ccc(C4(N)CCC4)cc3)c(-c3ccccc3)cc21 [Example 62, 3-(6-(4-(1-aminocyclobutyl)phenyl)-2-oxo-7-phenyl-2,3-dihydro-1H-Pyrido[2,3-b][1,4]oxazin-1-yl)propanenitrile]
1 to 10 | 1 to 10 | > 10 | NC1(c2ccc(-c3nc4c(cc3-c3ccccc3)N(C3CCOCC3)C(=O)CO4)cc2)CCC1 [Example 65, 6-(4-(1-aminocyclobutyl)phenyl)-7-phenyl-1-(tetrahydro-2H-pyran-4-yl)-1H-pyrido[2,3-b][1,4]oxazin-2(3H)-one]
0.1 to 1 | 0.1 to 1 | > 10 | NC1(c2ccc(-c3nc4c(cc3-c3ccccc3)N(CCO)C(=O)CO4)cc2)CCC1 [Example 68, 6-(4-(1-aminocyclobutyl)phenyl)-1-(2-hydroxyethyl)-7-phenyl-1H-pyrido[2,3-b][1,4]oxazin-2(3H)-one]
1 to 10 | 0.1 to 1 | > 10 | CN1c2cc(-c3ccccc3)c(-c3ccc(C4(N)CCC4)cc3)nc2OCS1(=O)=O [Example 73, 6-(4-(1-aminocyclobutyl)phenyl)-1-methyl-7-phenyl-1H-pyrido[3,2-e][1,3,4]oxathiazine 2,2-dioxide]
0.1 to 1 | 0.1 to 1 | > 10 | N#CCN1C(=O)C(CCO)Oc2nc(-c3ccc(C4(N)CCC4)cc3)c(-c3ccccc3)cc21 (stereo not drawn) [Example 78]
≤ 0.1 | 0.1 to 1 | 1 to 10 | C[C@]1(O)C[C@@](N)(c2ccc(-c3nc4c(cc3-c3ccccc3)-n3c(n[nH]c3=O)CO4)cc2)C1 [Example 79, 7-(4-((1r,3r)-1-amino-3-hydroxy-3-methylcyclobutyl)phenyl)-8-phenyl-2,4-dihydro-1H-pyrido[2,3-b][1,2,4]triazolo[4,3-d][1,4]oxazin-1-one]
0.1 to 1 | 0.1 to 1 | > 10 | CC1Oc2nc(-c3ccc(C4(N)CCC4)cc3)c(-c3ccccc3)cc2NC1=O (stereo not drawn) [Example 80, 6-(4-(1-aminocyclobutyl)phenyl)-3-methyl-7-phenyl-1H-pyrido[2,3-b][1,4]oxazin-2(3H)-one]
